Measured values: PubChem BioAssay AID1845200 (Molecular Pharmacology Branch, DTP, NCI, 2023)
pIC50: −log10 of the molar value. Calls of active or inactive are those of the source. How the source made its calls: active means viability on the fitted dose curve at most 10% of control; inactive means the rest.

System: ASPS-1 complex tumor spheroids, viability
Test: Anticancer human tumor ASPS-1 cell line growth inhibition;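 further: spheroids exposed to agents for 7 days after 3 days of growth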;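 on viability, T/C: 100% = DMSO vehicle treated spheroids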
Conditions: for pIC50: curve of first compound; for viability, T/C: stronger effect = lower value
Summary of the method: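 Complex spheroids of malignant cells with endothelial cells and mesenchymal stem cells; agents alone or combined, from near clinical Cmax (or 10 microM if unknown) down in half-log steps, 0.25% DMSO final.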

[1] = second compound 1 µM, first compound 0.00949 µM
[2] = second compound 1 µM, first compound 0.03 µM
[3] = second compound 1 µM, first compound 0.0949 µM
[4] = second compound 1 µM, first compound 0.3 µM
[5] = second compound 1 µM, first compound 0.949 µM
[6] = second compound 1 µM, first compound 3 µM
[7] = second compound 3.16 µM, first compound 0.00949 µM
[8] = second compound 3.16 µM, first compound 0.03 µM
[9] = second compound 3.16 µM, first compound 0.0949 µM
[10] = second compound 3.16 µM, first compound 0.3 µM
[11] = second compound 3.16 µM, first compound 0.949 µM
[12] = second compound 3.16 µM, first compound 3 µM
[13] = second compound 10 µM, first compound 0.00949 µM
[14] = second compound 10 µM, first compound 0.03 µM
[15] = second compound 10 µM, first compound 0.0949 µM
[16] = second compound 10 µM, first compound 0.3 µM
[17] = second compound 10 µM, first compound 0.949 µM
[18] = second compound 10 µM, first compound 3 µM
[19] = second compound 31.6 µM, first compound 0.00949 µM
[20] = second compound 31.6 µM, first compound 0.03 µM
[21] = second compound 31.6 µM, first compound 0.0949 µM
[22] = second compound 31.6 µM, first compound 0.3 µM
[23] = second compound 31.6 µM, first compound 0.949 µM
[24] = second compound 31.6 µM, first compound 3 µM
[25] = second compound 100 µM, first compound 0.00949 µM
[26] = second compound 100 µM, first compound 0.03 µM
[27] = second compound 100 µM, first compound 0.0949 µM
[28] = second compound 100 µM, first compound 0.3 µM
[29] = second compound 100 µM, first compound 0.949 µM
[30] = second compound 100 µM, first compound 3 µM

| Structure (SMILES) | pIC50 (second compound 1 µM) | pIC50 (second compound 3.16 µM) | pIC50 (second compound 10 µM) | pIC50 (second compound 31.6 µM) | pIC50 (second compound 100 µM) | viability, T/C [3] [%] | viability, T/C [4] [%] | viability, T/C [5] [%] | viability, T/C [6] [%] | viability, T/C [9] [%] | viability, T/C [10] [%] | viability, T/C [11] [%] | viability, T/C [12] [%] | viability, T/C [15] [%] | viability, T/C [16] [%] | viability, T/C [17] [%] | viability, T/C [18] [%] | viability, T/C [21] [%] | viability, T/C [22] [%] | viability, T/C [23] [%] | also measured |
| --- | --- | --- | --- | --- | --- | --- | --- | --- | --- | --- | --- | --- | --- | --- | --- | --- | --- | --- | --- | --- | --- |
| CNCc1ccc(-c2cc(-c3nc(-c4ccc(S(=O)(=O)C(C)C)cc4)cnc3N)on2)cc1 + Cn1nnc2c(C(N)=O)ncn2c1=O | 6.25 | 6.13 | 6.59 | 6.53 | 6.74 | 105 | 72.5 | 31.1 | 7.06 | 92.6 | 69.3 | 45.6 | 9.69 | 87 | 40 | 30.4 | 6.72 | 67.4 | 48.7 | 31.2 | viability, T/C [1]: 104%; viability, T/C [2]: 104%; viability, T/C [7]: 109%; viability, T/C [8]: 106%; viability, T/C [13]: 98.8%; viability, T/C [14]: 103%; viability, T/C [19]: 88.5%; viability, T/C [20]: 78.9%; viability, T/C [24]: 12.9%; viability, T/C [25]: 79.1%; viability, T/C [26]: 78.4%; viability, T/C [27]: 58.2%; viability, T/C [28]: 41.6%; viability, T/C [29]: 21.7%; viability, T/C [30]: 1.51% |
| Cn1ncnc1[C@H]1c2n[nH]c(=O)c3cc(F)cc(c23)N[C@@H]1c1ccc(F)cc1 + Cn1nnc2c(C(N)=O)ncn2c1=O | < 5.52 | < 5.52 | < 5.52 | < 5.52 | < 5.52 | 97.5 | 103 | 96.3 | 74.1 | 96.2 | 95.8 | 91.1 | 67.8 | 80.1 | 83.4 | 71.7 | 61.1 | 76 | 67 | 56.5 | viability, T/C [1]: 98.8%; viability, T/C [2]: 98.9%; viability, T/C [7]: 99.7%; viability, T/C [8]: 95%; viability, T/C [13]: 86.2%; viability, T/C [14]: 89.6%; viability, T/C [19]: 78.5%; viability, T/C [20]: 76.3%; viability, T/C [24]: 53.2%; viability, T/C [25]: 56.4%; viability, T/C [26]: 50.8%; viability, T/C [27]: 52.2%; viability, T/C [28]: 58.7%; viability, T/C [29]: 54.5%; viability, T/C [30]: 50.8% |
| O=C(c1cc(Cc2n[nH]c(=O)c3ccccc23)ccc1F)N1CCN(C(=O)C2CC2)CC1 + Cn1nnc2c(C(N)=O)ncn2c1=O | < 4.52 | < 4.52 | < 4.52 | < 4.52 | 5.47 | 94.4 | 83.3 | 92.6 | 82.5 | 97.6 | 94.2 | 115 | 95.6 | 85.8 | 82.4 | 82.8 | 78.1 | 78.8 | 70.5 | 81.9 | viability, T/C (second compound 1 µM, first compound 9.49 µM): 95.6%; viability, T/C (second compound 1 µM, first compound 30 µM): 79.2%; outcome (second compound 3.16 µM, first compound 9.49 µM): inactive; viability, T/C (second compound 3.16 µM, first compound 30 µM): 76%; viability, T/C (second compound 10 µM, first compound 9.49 µM): 76.7%; viability, T/C (second compound 10 µM, first compound 30 µM): 75.5%; viability, T/C [24]: 72.3%; viability, T/C (second compound 31.6 µM, first compound 9.49 µM): 72.4%; viability, T/C (second compound 31.6 µM, first compound 30 µM): 58.6%; viability, T/C [27]: 68.7%; viability, T/C [28]: 61.1%; viability, T/C [29]: 51%; viability, T/C [30]: 54.3%; viability, T/C (second compound 100 µM, first compound 9.49 µM): 44.3%; viability, T/C (second compound 100 µM, first compound 30 µM): 49.1% |
